From ChEMBL document CHEMBL4804284

Experiments:
Design in all cases: scale not given: the % may be the effect or the level left
[1] = target: Mitogen-activated protein kinase 14 (Homo sapiens) (UniProt Q16539); assay: Inhibition of DNA-tagged human p38-alpha assessed as percent of control at 50000 nM by qPCR analysis relative to control
[2] = target: Ephrin type-A receptor 3 (Homo sapiens) (UniProt P29320); assay: Inhibition of DNA-tagged human EPHA3 assessed as percent of control at 50000 nM by qPCR analysis relative to control
[3] = target: SRSF protein kinase 1 (Homo sapiens) (UniProt Q96SB4); assay: Inhibition of DNA-tagged human SRPK1 assessed as percent of control at 50000 nM by qPCR analysis relative to control
[4] = system: Tyrosine-protein kinase ABL1 (Homo sapiens), P00519 [Q252H]; assay: Inhibition of DNA-tagged phosphorylated human ABL1 Q252H mutant assessed as percent of control at 50000 nM by qPCR analysis relative to control
[5] = target: Ephrin type-A receptor 8 (Homo sapiens) (UniProt P29322); assay: Inhibition of DNA-tagged human EPHA8 assessed as percent of control at 50000 nM by qPCR analysis relative to control
Chain of Ephrin type-A receptor 8 (Homo sapiens) (P29322 whole entry): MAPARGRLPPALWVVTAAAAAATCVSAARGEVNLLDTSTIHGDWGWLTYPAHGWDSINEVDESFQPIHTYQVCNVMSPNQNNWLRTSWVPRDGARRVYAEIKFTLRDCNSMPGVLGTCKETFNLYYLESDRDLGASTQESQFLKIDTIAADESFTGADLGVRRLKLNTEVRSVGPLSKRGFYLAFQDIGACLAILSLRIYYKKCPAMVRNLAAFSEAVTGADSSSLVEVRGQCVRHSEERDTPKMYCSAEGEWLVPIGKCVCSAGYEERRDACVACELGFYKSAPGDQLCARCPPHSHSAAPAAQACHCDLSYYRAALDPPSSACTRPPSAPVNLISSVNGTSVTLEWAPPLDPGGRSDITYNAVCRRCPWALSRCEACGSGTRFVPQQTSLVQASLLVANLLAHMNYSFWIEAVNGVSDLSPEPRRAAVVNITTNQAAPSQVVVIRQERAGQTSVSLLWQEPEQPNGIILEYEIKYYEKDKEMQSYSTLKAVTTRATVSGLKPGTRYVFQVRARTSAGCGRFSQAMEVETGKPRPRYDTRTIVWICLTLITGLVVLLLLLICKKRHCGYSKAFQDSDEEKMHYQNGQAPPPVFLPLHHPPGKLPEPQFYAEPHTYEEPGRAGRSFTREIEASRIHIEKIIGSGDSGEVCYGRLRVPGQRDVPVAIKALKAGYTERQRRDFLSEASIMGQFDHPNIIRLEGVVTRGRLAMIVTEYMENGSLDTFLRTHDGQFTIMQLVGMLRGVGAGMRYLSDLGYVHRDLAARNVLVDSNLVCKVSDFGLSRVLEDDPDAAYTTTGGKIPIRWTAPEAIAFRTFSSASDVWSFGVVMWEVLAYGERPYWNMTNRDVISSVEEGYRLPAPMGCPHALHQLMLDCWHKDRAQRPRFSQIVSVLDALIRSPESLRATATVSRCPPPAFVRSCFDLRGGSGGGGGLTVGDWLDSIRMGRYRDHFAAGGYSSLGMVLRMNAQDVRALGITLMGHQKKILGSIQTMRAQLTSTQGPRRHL

[6] = target: Casein kinase II subunit alpha (Homo sapiens) (UniProt P68400); assay: Inhibition of DNA-tagged human CSNK2A1 assessed as percent of control at 50000 nM by qPCR analysis relative to control
[7] = target: Atypical kinase COQ8B, mitochondrial (Homo sapiens) (UniProt Q96D53); assay: Inhibition of DNA-tagged human ADCK4 assessed as percent of control at 50000 nM by qPCR analysis relative to control
[8] = target: Ribosomal protein S6 kinase alpha-5 (Homo sapiens) (UniProt O75582); assay: Inhibition of DNA-tagged human N-terminal RPS6KA5 kinase domain 1 assessed as percent of control at 50000 nM by qPCR analysis relative to control
[9] = target: Macrophage colony-stimulating factor 1 receptor (Homo sapiens) (UniProt P07333); assay: Inhibition of DNA-tagged human CSF1R assessed as percent of control at 50000 nM by qPCR analysis relative to control
Chain of Macrophage colony-stimulating factor 1 receptor (Homo sapiens) (P07333 whole entry): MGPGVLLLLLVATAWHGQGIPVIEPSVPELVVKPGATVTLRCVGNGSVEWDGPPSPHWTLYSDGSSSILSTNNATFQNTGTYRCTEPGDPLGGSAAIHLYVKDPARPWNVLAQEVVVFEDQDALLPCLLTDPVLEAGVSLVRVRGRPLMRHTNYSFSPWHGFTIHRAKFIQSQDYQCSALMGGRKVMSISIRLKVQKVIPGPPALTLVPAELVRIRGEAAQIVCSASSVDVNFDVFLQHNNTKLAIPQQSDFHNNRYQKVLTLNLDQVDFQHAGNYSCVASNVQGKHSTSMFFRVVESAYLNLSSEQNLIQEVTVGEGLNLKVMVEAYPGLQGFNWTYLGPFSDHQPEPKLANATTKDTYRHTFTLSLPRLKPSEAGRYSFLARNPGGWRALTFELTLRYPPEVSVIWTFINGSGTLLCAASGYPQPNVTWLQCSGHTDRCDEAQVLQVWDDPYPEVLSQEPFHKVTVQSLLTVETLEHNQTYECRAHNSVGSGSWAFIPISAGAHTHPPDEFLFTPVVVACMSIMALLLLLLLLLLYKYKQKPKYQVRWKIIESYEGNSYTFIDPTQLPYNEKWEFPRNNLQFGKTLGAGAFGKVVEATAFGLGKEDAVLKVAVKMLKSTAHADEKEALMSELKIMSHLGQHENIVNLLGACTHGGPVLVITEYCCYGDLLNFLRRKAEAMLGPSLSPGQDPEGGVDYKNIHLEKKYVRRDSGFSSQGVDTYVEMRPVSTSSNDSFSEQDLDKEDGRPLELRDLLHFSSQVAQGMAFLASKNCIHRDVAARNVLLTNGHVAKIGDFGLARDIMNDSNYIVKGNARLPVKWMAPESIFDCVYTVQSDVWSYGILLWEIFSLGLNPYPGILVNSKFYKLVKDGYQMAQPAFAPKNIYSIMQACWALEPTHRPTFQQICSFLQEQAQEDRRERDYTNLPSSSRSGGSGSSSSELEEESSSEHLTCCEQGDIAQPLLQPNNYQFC

[10] = target: Receptor tyrosine-protein kinase erbB-4 (Homo sapiens) (UniProt Q15303); assay: Inhibition of DNA-tagged human ERBB4 assessed as percent of control at 50000 nM by qPCR analysis relative to control
[11] = target: Ribosomal protein S6 kinase alpha-1 (Homo sapiens) (UniProt Q15418); assay: Inhibition of DNA-tagged human C-terminal RSK1 kinase domain 2 assessed as percent of control at 50000 nM by qPCR analysis relative to control
[12] = target: Muscle, skeletal receptor tyrosine-protein kinase (Homo sapiens) (UniProt O15146); assay: Inhibition of DNA-tagged human MUSK assessed as percent of control at 50000 nM by qPCR analysis relative to control
[13] = target: Serine/threonine-protein kinase Nek9 (Homo sapiens) (UniProt Q8TD19); assay: Inhibition of DNA-tagged human NEK9 assessed as percent of control at 50000 nM by qPCR analysis relative to control
[14] = target: Non-receptor tyrosine-protein kinase TYK2 (Homo sapiens) (UniProt P29597); assay: Inhibition of DNA-tagged human TYK2 JH1 catalytic domain assessed as percent of control at 50000 nM by qPCR analysis relative to control
[15] = target: Protein kinase C theta type (Homo sapiens) (UniProt Q04759); assay: Inhibition of DNA-tagged human PRKCQ assessed as percent of control at 50000 nM by qPCR analysis relative to control
Chain of Protein kinase C theta type (Homo sapiens) (Q04759 whole entry, looked up): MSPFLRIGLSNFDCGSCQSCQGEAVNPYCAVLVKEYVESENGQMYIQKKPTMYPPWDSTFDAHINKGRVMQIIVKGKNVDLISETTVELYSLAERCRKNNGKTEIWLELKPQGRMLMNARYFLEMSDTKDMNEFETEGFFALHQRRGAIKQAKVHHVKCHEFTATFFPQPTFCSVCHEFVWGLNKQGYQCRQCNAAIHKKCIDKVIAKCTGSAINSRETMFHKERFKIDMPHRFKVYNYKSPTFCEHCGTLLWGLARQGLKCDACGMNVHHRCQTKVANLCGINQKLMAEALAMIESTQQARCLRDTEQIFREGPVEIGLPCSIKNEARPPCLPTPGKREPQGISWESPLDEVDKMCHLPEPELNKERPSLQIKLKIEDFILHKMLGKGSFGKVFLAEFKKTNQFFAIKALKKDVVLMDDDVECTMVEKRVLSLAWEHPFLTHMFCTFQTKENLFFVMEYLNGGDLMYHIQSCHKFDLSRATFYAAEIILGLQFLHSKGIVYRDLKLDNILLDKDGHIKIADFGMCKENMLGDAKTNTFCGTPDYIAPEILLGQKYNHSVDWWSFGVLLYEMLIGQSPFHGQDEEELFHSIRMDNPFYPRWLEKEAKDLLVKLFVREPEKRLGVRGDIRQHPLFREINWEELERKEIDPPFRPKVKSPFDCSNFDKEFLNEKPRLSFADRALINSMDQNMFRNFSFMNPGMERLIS

[16] = system: Epidermal growth factor receptor (Homo sapiens), P00533 [UNDEFINED MUTATION]; assay: Inhibition of DNA-tagged human EGFR L747-S752del/P753S double mutant assessed as percent of control at 50000 nM by qPCR analysis relative to control
[17] = target: Serine/threonine-protein kinase MARK2 (Homo sapiens) (UniProt Q7KZI7); assay: Inhibition of DNA-tagged human MARK2 assessed as percent of control at 50000 nM by qPCR analysis relative to control
[18] = target: Mitogen-activated protein kinase kinase kinase 5 (Homo sapiens) (UniProt Q99683); assay: Inhibition of DNA-tagged human ASK1 assessed as percent of control at 50000 nM by qPCR analysis relative to control
[19] = target: Phosphatidylinositol 4,5-bisphosphate 3-kinase catalytic subunit delta isoform (Homo sapiens) (UniProt O00329); assay: Inhibition of DNA-tagged human PIK3CD assessed as percent of control at 50000 nM by qPCR analysis relative to control
[20] = target: Myotonin-protein kinase (Homo sapiens) (UniProt Q09013); assay: Inhibition of DNA-tagged human DMPK assessed as percent of control at 50000 nM by qPCR analysis relative to control
[21] = target: Serine/threonine-protein kinase mTOR (Homo sapiens) (UniProt P42345); assay: Inhibition of DNA-tagged human MTOR assessed as percent of control at 50000 nM by qPCR analysis relative to control
[22] = target: Interleukin-1 receptor-associated kinase 3 (Homo sapiens) (UniProt Q9Y616); assay: Inhibition of DNA-tagged human IRAK3 assessed as percent of control at 50000 nM by qPCR analysis relative to control
[23] = target: Mitogen-activated protein kinase 4 (Homo sapiens) (UniProt P31152); assay: Inhibition of DNA-tagged human ERK4 assessed as percent of control at 50000 nM by qPCR analysis relative to control
[24] = target: Protein kinase C eta type (Homo sapiens) (UniProt P24723); assay: Inhibition of DNA-tagged human PRKCH assessed as percent of control at 50000 nM by qPCR analysis relative to control
[25] = target: Tyrosine-protein kinase Fyn (Homo sapiens) (UniProt P06241); assay: Inhibition of DNA-tagged human FYN assessed as percent of control at 50000 nM by qPCR analysis relative to control
[26] = target: Serine/threonine-protein kinase 33 (Homo sapiens) (UniProt Q9BYT3); assay: Inhibition of DNA-tagged human STK33 assessed as percent of control at 50000 nM by qPCR analysis relative to control
[27] = target: Serine/threonine-protein kinase MRCK beta (Homo sapiens) (UniProt Q9Y5S2); assay: Inhibition of DNA-tagged human MRCKB assessed as percent of control at 50000 nM by qPCR analysis relative to control
Chain of Serine/threonine-protein kinase MRCK beta (Homo sapiens) (Q9Y5S2 whole entry): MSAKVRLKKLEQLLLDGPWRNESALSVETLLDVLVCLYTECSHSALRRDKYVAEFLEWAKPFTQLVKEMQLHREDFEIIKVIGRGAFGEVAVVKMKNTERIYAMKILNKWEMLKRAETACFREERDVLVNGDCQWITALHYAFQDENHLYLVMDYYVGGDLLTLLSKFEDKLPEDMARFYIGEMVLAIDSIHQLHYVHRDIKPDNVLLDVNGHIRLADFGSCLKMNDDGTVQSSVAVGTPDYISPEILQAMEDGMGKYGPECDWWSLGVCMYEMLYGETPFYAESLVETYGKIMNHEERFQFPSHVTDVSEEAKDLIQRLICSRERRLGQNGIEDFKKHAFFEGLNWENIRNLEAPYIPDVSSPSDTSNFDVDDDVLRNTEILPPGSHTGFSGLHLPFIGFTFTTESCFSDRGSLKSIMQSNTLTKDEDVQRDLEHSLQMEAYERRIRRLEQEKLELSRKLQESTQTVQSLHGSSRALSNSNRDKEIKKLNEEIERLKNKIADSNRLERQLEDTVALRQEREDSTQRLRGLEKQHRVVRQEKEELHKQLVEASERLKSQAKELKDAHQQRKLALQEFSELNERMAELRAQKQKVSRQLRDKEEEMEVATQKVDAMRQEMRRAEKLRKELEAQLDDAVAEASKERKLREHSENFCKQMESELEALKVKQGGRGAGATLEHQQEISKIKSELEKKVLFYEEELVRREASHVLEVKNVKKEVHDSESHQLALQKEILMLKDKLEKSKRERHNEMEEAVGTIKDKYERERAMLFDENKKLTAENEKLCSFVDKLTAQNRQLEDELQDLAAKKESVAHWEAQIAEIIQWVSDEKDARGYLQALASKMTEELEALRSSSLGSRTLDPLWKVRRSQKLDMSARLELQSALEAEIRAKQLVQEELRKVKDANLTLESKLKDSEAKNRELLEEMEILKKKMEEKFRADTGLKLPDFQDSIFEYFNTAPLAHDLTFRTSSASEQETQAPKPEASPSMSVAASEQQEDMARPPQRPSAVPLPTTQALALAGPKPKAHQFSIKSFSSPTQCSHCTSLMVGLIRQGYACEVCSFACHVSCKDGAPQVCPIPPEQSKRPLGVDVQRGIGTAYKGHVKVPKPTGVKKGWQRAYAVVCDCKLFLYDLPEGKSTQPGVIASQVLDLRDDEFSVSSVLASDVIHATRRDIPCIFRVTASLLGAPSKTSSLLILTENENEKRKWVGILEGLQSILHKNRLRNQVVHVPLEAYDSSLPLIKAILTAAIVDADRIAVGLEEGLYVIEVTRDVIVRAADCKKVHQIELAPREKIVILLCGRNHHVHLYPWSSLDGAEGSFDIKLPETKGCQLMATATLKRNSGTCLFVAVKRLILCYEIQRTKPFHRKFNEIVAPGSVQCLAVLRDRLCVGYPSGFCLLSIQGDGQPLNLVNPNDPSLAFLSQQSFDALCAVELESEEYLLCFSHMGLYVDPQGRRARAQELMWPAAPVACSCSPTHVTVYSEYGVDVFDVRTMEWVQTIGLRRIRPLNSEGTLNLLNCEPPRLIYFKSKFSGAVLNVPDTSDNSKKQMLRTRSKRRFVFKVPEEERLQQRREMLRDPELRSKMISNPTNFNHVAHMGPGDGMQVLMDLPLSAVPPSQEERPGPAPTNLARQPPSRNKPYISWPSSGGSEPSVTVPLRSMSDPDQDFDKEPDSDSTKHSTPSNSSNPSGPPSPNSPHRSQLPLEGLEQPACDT

[28] = target: Myosin-IIIa (Homo sapiens) (UniProt Q8NEV4); assay: Inhibition of DNA-tagged human MYO3A assessed as percent of control at 50000 nM by qPCR analysis relative to control
[29] = target: Dual specificity mitogen-activated protein kinase kinase 1 (Homo sapiens) (UniProt Q02750); assay: Inhibition of DNA-tagged human MEK1 assessed as percent of control at 50000 nM by qPCR analysis relative to control
Chain of Dual specificity mitogen-activated protein kinase kinase 1 (Homo sapiens) (Q02750 whole entry): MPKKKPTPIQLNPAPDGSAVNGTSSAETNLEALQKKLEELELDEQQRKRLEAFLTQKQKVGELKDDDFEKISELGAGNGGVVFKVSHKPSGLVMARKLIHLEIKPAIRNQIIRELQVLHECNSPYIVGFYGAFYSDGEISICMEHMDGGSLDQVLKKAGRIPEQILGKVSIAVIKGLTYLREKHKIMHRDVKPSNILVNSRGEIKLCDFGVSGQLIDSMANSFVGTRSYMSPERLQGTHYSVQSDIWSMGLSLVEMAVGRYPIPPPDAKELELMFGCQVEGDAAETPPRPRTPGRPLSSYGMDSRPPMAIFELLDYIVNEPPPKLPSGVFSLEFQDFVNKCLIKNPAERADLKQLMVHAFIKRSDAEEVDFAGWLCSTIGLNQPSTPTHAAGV

CN1C(=O)/C(=C2/C(=O)Nc3ccccc32)c2ccccc21 showed an Activity [1] of 100%, an Activity [2] of 91% and an Activity [3] of 100%. The Activity [4] was 100%, the Activity [5] was 94% and the Activity [6] was 79%. For the same compound, the Activity [7] was 78%, the Activity [8] was 100% and the Activity [9] was 98%. The Activity [10] was 88%, the Activity [11] was 84% and the Activity [12] was 86%. The Activity [13] was 33%, the Activity [14] was 77% and the Activity [15] was 99%. For the same compound, the Activity [16] was 64%, the Activity [17] was 75% and the Activity [18] was 100%. The Activity [19] was 95%, the Activity [20] was 84% and the Activity [21] was 100%. The Activity [22] was 90%, the Activity [23] was 86% and the Activity [24] was 100%. For the same compound, the Activity [25] was 100%, the Activity [26] was 100% and the Activity [27] was 83%. For the same compound, the Activity [28] was 100% and the Activity [29] was 81%.
